Measured values: WO2015077660A1, “Enzyme reactor system enabling enhanced enzymatic digestion, analyte solubility and improved mass spectrometric compatibility” (priority 2013, dated 2014)
Where a name gives a salt, the structure may show the parent alone. Blank lines part the entries; values can stand above or below the compound they belong to.

Experiments:
[1] = system: trypsin; assay: Insulin digestion in immobilized enzyme reactor, buffer screening (Table 7); format: biochemical, porcine; conditions: IMER, 70°C, 60 s
[2] = system: T1, porcine trypsin; assay: Insulin digestion by trypsin in solution, buffer screening (Table 9); format: biochemical; conditions: for Digested / Peptide / Undigested: 37°C, 18 h
T1 construct: purchased

[3] = system: BSA; assay: Screen of additives for prevention of aggregation (Table 5); format: physicochemical, bovine; conditions: 12.5 mg/mL BSA, 70°C, four columns in printed order, heads missing
[4] = Plasma digestion with buffer/additive combinations, aggregation; format: physicochemical, beagle; conditions: 100mM CaCl2, 90 minutes
[5] = Aggregation of BSA in IMER, ammonium acetate, 5mM CaCl2, 5% glycerol (Table 34); format: physicochemical; conditions: 5% and 10% (Tables 34 and 35), 50mM ammonium acetate, 5mM CaCl2, 70°C
[6] = Aggregate formation on digestion at high protein loads; format: physicochemical, monkey; conditions: 10% final concentration with 500 mM CaCl2
[7] = Aggregation of BSA in IMER, ammonium acetate, 5mM CaCl2, 0.1% octylglucoside (Table 33); format: physicochemical; conditions: 0.1% in 50mM ammonium acetate, 5mM CaCl2, 70°C
[8] = system: T1, porcine trypsin; assay: Comparing digestion buffers, solution digestion of insulin; format: biochemical; conditions: 37°C, 18 hours, versus tris buffer containing calcium chloride

- Digested ([1]; 0.5M): 1816572
- Peptide ([1]; 0.5M): 715848
- Undigested ([1]; 0.5M): 2285541
- Digested ([1]; 1M): 1448998
- Peptide ([1]; 1M): 555954
- Undigested ([1]; 1M): 2812910
- Digested ([1]; 2M): 905391
- Peptide ([1]; 2M): 349854
- Undigested ([1]; 2M): 3812799
- Digested ([1]; 4M): 285873
- Peptide ([1]; 4M): 104200
- Undigested ([1]; 4M): 4609299
- Digested ([1]; 6M): 139668
- Peptide ([1]; 6M): 49088
- Undigested ([1]; 6M): 4675789
- Digested ([1]; 8M): 43865
- Peptide ([1]; 8M): 13979
- Undigested ([1]; 8M): 4151508
SMILES: NC(N)=O [Urea]
- Digested ([2]; 0.5M): 1220686
- Peptide ([2]; 0.5M): 538728
- Undigested ([2]; 0.5M): 3763696
- Digested ([2]; 1M): 1145096
- Peptide ([2]; 1M): 511139
- Undigested ([2]; 1M): 2972094
- Digested ([2]; 2M): 1106227
- Peptide ([2]; 2M): 490181
- Undigested ([2]; 2M): 3034093
- Digested ([2]; 4M): 860501
- Peptide ([2]; 4M): 389932
- Undigested ([2]; 4M): 2877527
- Digested ([2]; 6M): 529552
- Peptide ([2]; 6M): 301136
- Undigested ([2]; 6M): 3250299
- Digested ([2]; 8M): 156492
- Peptide ([2]; 8M): 69027
- Undigested ([2]; 8M): 2197015

- enzyme activity [8]: significantly higher
SMILES: N.O=C(O)O [ammonium bicarbonate]

The remaining lines, values behind:

SMILES: N=C(N)N [Gdn HC1, guanidine hydrochloride]
- Digested ([1]; 0.5M): 723258
- Peptide ([1]; 0.5M): 309390
- Undigested ([1]; 0.5M): 4114993
- Digested ([1]; 1M): 423606
- Peptide ([1]; 1M): 179523
- Undigested ([1]; 1M): 4328875
- Digested ([1]; 2M): 136773
- Peptide ([1]; 2M): 56700
- Undigested ([1]; 2M): 4244827
- Digested ([1]; 4M): 40578
- Peptide ([1]; 4M): 15000
- Undigested ([1]; 4M): 4562051
- Digested ([1]; 6M): 9402
- Peptide ([1]; 6M): 2447
- Undigested ([1]; 6M): 4396495
- Digested ([2]; 0.5M): 216251
- Peptide ([2]; 0.5M): 101735
- Undigested ([2]; 0.5M): 5487176
- Digested ([2]; 1M): 215746
- Peptide ([2]; 1M): 94828
- Undigested ([2]; 1M): 5229914
- Digested ([2]; 2M): 184318
- Peptide ([2]; 2M): 67546
- Undigested ([2]; 2M): 5455780
- Digested ([2]; 4M): 30954
- Peptide ([2]; 4M): 11014
- Undigested ([2]; 4M): 6195166
- Digested ([2]; 6M): 5871
- Peptide ([2]; 6M): 1647
- Undigested ([2]; 6M): 5301367
- aggregation ([3]; 0.5M, listed as Guanidine HC1, hydrochloride): N and Ν

SMILES: OCC(O)CO [Glycerol]
- aggregation ([4]; 10% in 50mM TBS): no aggregation
- Digested ([1]; 5%): 2051870
- Peptide ([1]; 5%): 828171
- Undigested ([1]; 5%): 2217803
- Digested ([1]; 10%): 1779261
- Peptide ([1]; 10%): 697488
- Undigested ([1]; 10%): 2432362
- Digested ([1]; 20%): 1167862
- Peptide ([1]; 20%): 445736
- Undigested ([1]; 20%): 3174668
- sample solubility and aggregation [5]: enhances sample solubility and prevents aggregation
- formation of aggregates [6]: prevented the formation of aggregates
- Digested ([2]; 5%): 1007768
- Peptide ([2]; 5%): 432166
- Undigested ([2]; 5%): 3685707
- Digested ([2]; 10%): 833521
- Peptide ([2]; 10%): 353626
- Undigested ([2]; 10%): 4404492
- Digested ([2]; 20%): 654553
- Peptide ([2]; 20%): 275165
- Undigested ([2]; 20%): 5163829
- digestion efficiency ([2]; lower to moderate concentrations): does not significantly, negatively impact digestion efficiency
- aggregation ([3]; 5%): Ν
- aggregation ([3]; 10%): Ν

SMILES: CCCCCCCCO[C@@H]1O[C@H](CO)[C@@H](O)[C@H](O)[C@H]1O [OGS, octylglucoside]
- aggregation ([4]; 0.1% in 50mM TBS): significant aggregation
- sample solubility and aggregation [7]: enhances sample solubility and prevents aggregation
- Digested ([1]; 0.05%): 2394275
- Peptide ([1]; 0.05%): 958775
- Undigested ([1]; 0.05%): 1730676
- Digested ([1]; 0.1%): 2255277
- Peptide ([1]; 0.1%): 891922
- Undigested ([1]; 0.1%): 2114234
- Digested ([1]; 0.15%): 2430665
- Peptide ([1]; 0.15%): 942341
- Undigested ([1]; 0.15%): 2160281
- Digested ([1]; 0.2%): 2255277
- Peptide ([1]; 0.2%): 891922
- Undigested ([1]; 0.2%): 2114234
- Digested ([2]; 0.05%): 1424601
- Peptide ([2]; 0.05%): 581489
- Undigested ([2]; 0.05%): 3798587
- Digested ([2]; 0.1%): 1616907
- Peptide ([2]; 0.1%): 675287
- Undigested ([2]; 0.1%): 4128179
- Digested ([2]; 0.15%): 1538290
- Peptide ([2]; 0.15%): 636117
- Undigested ([2]; 0.15%): 3751677
- Digested ([2]; 0.2%): 1574071
- Peptide ([2]; 0.2%): 619589
- Undigested ([2]; 0.2%): 3732438
- aggregation ([3]; additive concentration not given): Ν
